# In article PMC12040169 (PLOS Biology, 2025):
# Experiment: in vitro
# Conditions: human, hela cells, % viability
row,SMILES,"viability at 28.5 h, 10 µM [%]"
1,N#CCCCN1CCC(Oc2nccnc2OCC2COc3ccccc3O2)CC1 (centres unmarked) [CBK082994T],86.8
2,OC1CCC(Nc2cncc(-c3cccc4ccccc34)n2)CC1 (centres unmarked) [CBK065902],90.2
3,CC(Nc1nc(-c2ccc([N+](=O)[O-])cc2)nc2ccccc12)c1ccccc1 (centres unmarked) [CBK264767],88.3
4,Cc1ccc(SCS(=O)(=O)c2ccc(C)cc2)cc1 [CBK026853],97.8
5,O=C(O)/C=C\C(=O)Nc1ccc(OCC(=O)O)cc1 [CBK264449],102
6,O=c1c2ccccc2nc2n1CCN(Cc1ccc(F)c(F)c1)CC2 [CBK284816],96.6
7,COc1ccc(NC(=O)CC(C(=O)O)N2CCOCC2)cc1 (centres unmarked) [CBK266955],101
8,CC(C)(C)S(=O)(=O)Cc1noc(-c2ccc(Cl)nc2)n1 [CBK089825],98.9
9,O=[N+]([O-])c1cccc(-c2ccc(OC3CCNCC3)cc2)c1 [CBK126465T],98.8
10,COc1ccc(/C(C)=N/NC(=O)CSCc2cccc(Br)c2)cc1 [CBK261205],81.4
11,Cc1cc(C)c(C)c(S(=O)(=O)Nc2ccc(O)c(Sc3nc[nH]n3)c2)c1C [CBK267012],66.6
12,Cn1cnc2c1c(=O)n(CCCN1C(=O)C3(CC(=O)N(Cc4ccccc4)C3=O)c3cc(F)ccc31)c(=O)n2C (centres unmarked) [CBK075717],76
13,Cc1cc(=O)oc2cc(OCc3ccc(S(=O)(=O)N4CCOCC4)cc3)ccc12 [CBK267402],91.3
14,OCCN(Cc1cccnc1)Cc1cccn1-c1ccccc1Cl [CBK282936],89.7
15,O=C(c1ccco1)N1CCC(Cn2cncn2)(C2CCCCC2)CC1 [CBK136811],87.2
16,COc1ccc(CNc2nc(-c3cccnc3)nn2C(=O)c2ccc([N+](=O)[O-])cc2)cc1 [CBK268966],98.9
17,O=C(CNC(=O)c1ccccc1F)N/N=C/c1cccs1 [CBK261953],97.8
18,O=C(Nc1ccccc1N1CCOCC1)c1ccc(OCc2ccccc2)cc1 [CBK265992],96.3
19,O=C(O)CN1C(=O)[C@@H]2Cc3ccccc3CN2C1=O [CBK202728],82.8
20,O=C(O)c1cc(C=Cc2cn(Cc3ccccc3)nc2-c2cccnc2)nc2ccccc12 [CBK296988],105
21,CSCCC(C(=O)O)n1c(S)nnc1-c1ccc2ccccc2n1 (centres unmarked) [CBK269230],99.5
22,Cc1[nH]c2ccccc2c1C(=O)CSc1nc2ccccc2[nH]1 [CBK266494],63.6

row,SMILES,"viability at 28.5 h, 10 µM [%]"
1,O=Cc1cn(CCC(=O)O)nc1-c1cc2ccccc2o1 [CBK265376],90
2,CCN(CC)C(=O)c1[nH]c2ccccc2c1NS(=O)(=O)c1ccc(F)cc1 [CBK050105],94.1
3,Cn1cccc1C(=O)Nc1ccccc1N1CCNCC1 [CBK029450T],95.4
4,O=C(CCOc1ccccc1)Nc1cncc(OC2CCNCC2)n1 [CBK026734T],95.2
5,CCOc1cc(NC2CCN(C(=O)Cc3cc(C)on3)CC2)ncn1 [CBK304689],113
6,Cc1cc(OCC(=O)NCc2cccnc2)cc(C)c1Cl [CBK263658],86.5
7,CC(C)(O)C#Cc1ccc(C(=O)N2CCC(C(N)=O)(N3CCCCC3)CC2)cc1 [CBK264065],97.3
8,COc1ccc(-c2csc(NC(=O)NS(=O)(=O)c3ccc(C)cc3)n2)cc1 [CBK296117],88
9,Fc1ccc(CCN2CCC(c3nc(-c4cccnc4)no3)CC2)cc1 [CBK051464],118
10,c1ccc(Oc2ccccc2-c2cc(N3CCC(N4CCCCC4)CC3)ncn2)cc1 [CBK037728],88.7
11,Cc1nc2n(c1C)CCN(c1ccc3nnc(C(F)(F)F)n3n1)C2 [CBK305815],102
12,N#C/C(=C\c1cn(-c2ccccc2)nc1-c1cccc(S(=O)(=O)N2CCCC2)c1)c1nc2ccccc2c(=O)[nH]1 [CBK266296],91.9
13,O=C(O)C1CCC1C(=O)N1CCN(c2ccc(C(F)(F)F)cn2)CC1 (centres unmarked) [CBK057147],93.7
14,N=C(N)NCCc1ccc(Cl)cc1 [CBK024074G],105
15,Cc1ccc(-c2cc(C(=O)N(C)CC3(C)COC3)[nH]n2)cc1 [CBK281717],90.9
16,O=C(O)CC1Cn2ncc(-c3ccccc3)c2NC1=O (centres unmarked) [CBK288187],89.5
17,CC(=O)N1CCc2cc(C(=O)CN3CCC(c4ccccc4)C3)ccc21 (centres unmarked) [CBK282931],98
18,Cc1nn(C)c(C)c1CCc1nc(CN2CCN(C)CC2)no1 [CBK306510],110
19,CCOC(=O)C1CCN(Cc2c(O)c3ccccc3oc2=O)CC1 [CBK266035],70.6
20,O=C1CCCN1CCC1CCN(c2nccc(CCC(F)(F)F)n2)CC1 [CBK307534],90.1
21,CCCCN(C=O)c1c(CC)nc2c(OCCOc3ccc(F)cc3)cccn12 [CBK147631],92.7
22,Cc1noc(C)c1CCC(=O)NC(Cc1ccncc1)C1CC(O)C1 (centres unmarked) [CBK306790],91

row,SMILES,"viability at 28.5 h, 10 µM [%]"
1,Cc1cccc(OCC2CCCN(C(=O)NCCc3cnn(C)c3)C2)c1 (centres unmarked) [CBK307358],96.9
2,O=C(Nc1sc2c(c1C(=O)NCc1cccnc1)CCCC2)c1ccc(Cl)cc1 [CBK265498],88.2
3,O=C(NCc1ccco1)[C@H]1CN2CCC1C[C@@H]2Cn1cc(CO)nn1 (some centres unmarked) [CBK289080],113
4,Cc1cc(C)n(C(=O)c2cccc(S(=O)(=O)N3CCCCCC3)c2)n1 [CBK266727],102
5,CC(=O)Nc1ccc(CN(CCO)C2CCc3ccccc32)cc1 (centres unmarked) [CBK304104],93.2
6,COc1ccc(C(=O)Nc2cc(C)c3c(=O)oc4ccccc4c3n2)c(OC)c1 [CBK291231],94.5
7,Cc1nccn1CCNC(=O)CC1C(=O)N(C)c2ccccc21 (centres unmarked) [CBK281977],101
8,COc1ccc(-c2nnc(SCC(=O)O)n2C)cc1 [CBK287232],93
9,CCOC(=O)CN1CCC(Oc2nccnc2OCc2cc(C)on2)CC1 [CBK082960T],105
10,O=C(NCCCc1ccccn1)c1cc(C2CCCCC2)no1 [CBK283296],89.4
11,O=C(O)COc1ccccc1/C=N/NC(=O)Cc1ccc(Br)c2ccccc12 [CBK263116],85.6
12,Cc1nc(CN2CCC(Oc3nccnc3OCc3ccc(Cl)c(Cl)c3)CC2)cs1 [CBK153787],95.9
13,O=c1c(-c2cc(O)[nH]n2)c(O)c2ccccc2n1Cc1ccccc1 [CBK291160],97.2
14,Cc1sc2ncnc(NCCOCCO)c2c1C [CBK265907],104
15,CC(C)(C)C1CCc2c(sc(NC(=S)NC(=O)COc3ccccc3)c2C(N)=O)C1 (centres unmarked) [CBK268634],107
16,COc1ccccc1N(CC(O)CN1C(=O)NC(C)(C)C1=O)S(=O)(=O)c1ccc(C)cc1 (centres unmarked) [CBK263581],99.4
17,CN(C(=O)CSc1ncccc1C#N)c1ccccc1 [CBK288044],98.3
18,CS(=O)(=O)NC1CCCN(Cc2nc(N)c3ccccc3n2)C1 (centres unmarked) [CBK304889],93.8
19,CN(Cc1cnn(C)c1)c1nccc(N2CCN[C@H]3CS(=O)(=O)C[C@H]32)n1 [CBK306964],100
20,Cc1ccc(-n2c(SCC(=O)Nc3ccccc3F)nnc2-c2ccccc2O)c(C)c1 [CBK268905],88.6
21,CCn1c(Cc2c(C)[nH]c3ccccc23)nnc1SCC(=O)NC12CC3CC(CC(C3)C1)C2 [CBK267529],89.3
22,Cc1cccc(NC(=O)c2cnc3n(c2=O)CCS3)c1 [CBK287375],108

row,SMILES,"viability at 28.5 h, 10 µM [%]"
1,O=C(O)/C=C/c1ccccc1OCC(=O)NC1CCCCC1 [CBK286900],99.8
2,CCc1nc2ccc(C(=O)N3CCCCC3)cn2c1N(C)CCC(C)C [CBK146065],96.3
3,O=C(Nc1ccc(=O)n2c1[C@@H]1C[C@@H](CN(C(=O)COc3ccccc3)C1)C2)c1cncnc1 [CBK288712],109
4,NC(=O)c1ccc(NC(=O)COc2ccc3ccccc3c2)cc1 [CBK263738],101
5,O=S(=O)(NCCN1CCOCC1)c1cc(Cl)ccc1Cl [CBK261757],85.1
6,CS(=O)(=O)Nc1nccnc1N1CCN(Cc2ccccc2)CC1 [CBK084268],96.5
7,C[C@@H]1CN[C@@H](C)CN1Cc1cc(NS(=O)(=O)c2ccccc2Cl)cc2ccoc12 [CBK107211T],98.6
8,C=CCN1C(=O)CC2(C1=O)C(=O)N(Cc1nnc(-c3ccc(C)cc3)o1)c1ccc(Cl)cc12 (centres unmarked) [CBK075434],104
9,O=C(c1c[nH]c(C(=O)N2CCN(c3ncccn3)CC2)c1)c1ccc(Cl)cc1Cl [CBK107418],89.4
10,Oc1cccc(-c2nccnc2NCCc2ccccn2)c1 [CBK037388],104
11,O=[N+]([O-])c1cccnc1Sc1ccccc1C1=NCCCN1 [CBK115579C],96.2
12,Cc1ccc(CC(=O)N2CCc3nn(C(C)C)c(=O)cc3C2)cc1 [CBK284499],93.6
13,O=C(Nc1ccccc1)c1onc2c1CCCC2 [CBK058703],108
14,CCc1nccn1CCC(=O)NC1CCN(Cc2ccncc2)CC1 [CBK306813],107
15,CCS(=O)(=O)N1C2CCC(C2)[C@H]1COc1ccc(F)cc1 (some centres unmarked) [CBK285280],109
16,COc1cc(CNn2c(C)nnc2S)cc(Br)c1OCC(=O)NC(C)(C)C [CBK266575],112
17,COc1cc(/C=N\Nc2nnc3c(n2)[nH]c2c(C)cccc23)cc(Br)c1O [CBK262375],106
18,Cn1nccc1C(=O)NC(Cc1cccs1)c1nccs1 (centres unmarked) [CBK285055],102
19,O[C@@]1(c2ccccn2)CC[C@H]2CN(Cc3ccccc3F)C[C@H]21 [CBK283001],94.3
20,Oc1cc2cccnc2nc1-c1ccc2c(c1)CCO2 [CBK073698],76
21,CCC(CN1CCCCC1)n1cncc1-c1cn(C)nc1C (centres unmarked) [CBK281460],96.9
22,COc1ccc(Br)cc1S(=O)(=O)n1ccnc1C [CBK264003],87.1

# Same assay, conditions: human, hela cells, % viability, bulk resorufin, single well
row,SMILES,"viability at 28.5 h, 10 µM [%]"
1,Cc1cccc(CNC(Cc2ccsc2)c2nccs2)n1 (centres unmarked) [CBK282697],106
